Broadly, the logP is a log measure of how a compound divides between an organic and an aqueous phase.

In the SangsterLogP compilation one finds logP and logD data, which are given here for 76 molecules.

A short description of data set [1]: method code SF-AS, from PMID: 640322. As to conditions: pH 4.0.
The nature of data set [2]: method code SF, from DOI: 10.1093/jnci/60.2.345, PMID: 621753.
The conditions of data set [3]: pH 5.6.
Data set [4] in a line: method code SF-GLC, from Park, Y.; Park, S. (2000). Determination and prediction of octanol/water partition coefficients and air-water partition coefficients for environmental toxic chemicals. 11(7)773-779.
Assay in data set [5]: not given
The source holds these as a separate data set.

Data set [6] in a line: method code HPLC, from DOI: 10.1016/j.ejmech.2015.05.022, PMID: 26005028. The following applies: pH 7.1.
Assay in data set [7]: not given
The source holds these as a separate data set.

Data set [8] is described as follows: method code SF-GLC, from DOI: 10.1016/s0003-2670(00)84505-5.
Assay in data set [9]: not given
The source holds these as a separate data set.

Data set [10] is described as follows: method code SF-GLC, from DOI: 10.1021/j100260a019.
Data set [11] is described as follows: method code SF-HPLC, from DOI: 10.1016/j.jchromb.2013.02.012, PMID: 23500352. As to conditions: pH 4.4.
A short description of data set [12]: method code SF, from DOI: 10.1016/0006-2952(91)90449-f, PMID: 1930261. The following applies: pH 2.0.
The nature of data set [13]: method code SF-RC, from DOI: 10.1021/jm901332c, PMID: 19921956. As to conditions: pH 7.4.
Data set [14] in a line: method code SF-AS, from DOI: 10.1016/0045-6535(84)90003-1.
Assay in data set [15]: not given
The source holds these as a separate data set.

Data set [16] is described as follows: method code SF-RC, from DOI: 10.1016/0014-2999(79)90231-0, PMID: 527663.
Assay in data set [17]: not given
The source holds these as a separate data set.

A short description of data set [18]: method code SF-HPLC, from DOI: 10.1002/jat.2550130210, PMID: 8486911. The following applies: pH 13.0.
Data set [19] is described as follows: method code SF-AS, from DOI: 10.1111/j.2042-7158.1989.tb06384.x, PMID: 2576447. As to conditions: pH 7.4.
Data set [20] in a line: method code SF-HPLC, from DOI: 10.1016/j.bmcl.2004.01.062, PMID: 15026043. The following applies: pH 5.5.
A short description of data set [21]: method code SF-GLC, from DOI: 10.1021/jm00240a002, PMID: 1151965.
Assay in data set [22]: not given
The source holds these as a separate data set.

Assay in data set [23]: not given
The source holds these as a separate data set.

The nature of data set [24]: method code SF, from Korenman, Y. (1975). Extraction of hydroxybenzoic acids and some of their derivatives from aqueous solution. Zh. Prikl. Khim., 48(6)1472-1474. The following applies: pH 2.0.
Assay in data set [25]: not given
The source holds these as a separate data set.

Assay in data set [26]: not given
The source holds these as a separate data set.

A short description of data set [27]: method code SF-GLC,AS, from DOI: 10.2134/jeq1981.00472425001000030028x.
Assay in data set [28]: not given
The source holds these as a separate data set.

Data set [29] can be described thus: method code SF-RC, from DOI: 10.1002/ps.2780190203.
Assay in data set [30]: not given
The source holds these as a separate data set.

Data set [31] in a line: method code SF-GLC, from DOI: 10.1021/je970020p.
Data set [32] is described as follows: method code SF-GLC, from DOI: 10.1016/0043-1354(83)90068-4.
Assay in data set [33]: not given
The source holds these as a separate data set.

Assay in data set [34]: not given
This is another data set of the same source.

Assay in data set [35]: not given
The source holds these as a separate data set.

Assay in data set [36]: not given
This is another data set of the same source.

A short description of data set [37]: method code SF-AS, from DOI: 10.1039/ft9938903773.

In turn, `O=[N+]([O-])c1ccc(CCBr)cc1` registered a lipophilicity (logP) of 2.9.
With `CCCCN(N=O)C(N)=O`, the logD in [1] stood at 1.04.
The molecule `O=NN(CCCl)C(=O)NCCO` showed a logP in data set [2] of 0.3.
As for `CCOc1cccc(O)c1`, the logD in data set [3] is 1.98.
Turning to `C1CCOC1`, the log partition coefficient (logP) in data set [4] was 0.5.
As for `CCCCCC(C)=O`, in data set [5], the logP was determined as 2.08.
In the case of `CC(=O)OC[C@H]1O[C@@H](OC(C)=O)[C@H](NC(=O)CBr)[C@@H](OC(C)=O)[C@@H]1OC(C)=O`, the logD in data set [6] is 0.23.
`CC(C)CC(=O)NC(N)=O` gave a logP in data set [7] of 0.45.
Regarding `COc1cc(Cl)c(Cl)cc1O`, the logP in [8] was found to be 3.19.
On to `CCCOC(C)=O`, for which the lipophilicity (logP) in data set [5] turned out to be 1.11.
For the molecule `O=NN(CCCl)C(=O)N1CCCC1`, in [2], the log partition coefficient (logP) was found to be 0.9.
In data set [9], `CCCCCC(CCC)C(=O)O` (stereo unspecified) had a logP of 3.2.
For `CC1CCC(C)O1` (stereo unspecified), the logP in data set [10] amounted to 1.22.
As to `CS(=O)(=O)OC[C@H](O)[C@@H](O)COS(C)(=O)=O`, in data set [11], the logD is -1.58.
`O=C1NC(=O)C(=O)C(=O)N1`: the logD in data set [12] was -1.86.
Consider `Cn1cnc2c(Br)ncnc21`, for which, in [13], the logD stood at 0.52.
On to `COc1c(O)c(Cl)c(Cl)c(Cl)c1Cl`, for which the log partition coefficient (logP) in [8] is 4.42.
On to `CC(C)C(=O)NC(N)=O`, for which the logP in data set [7] came to 0.04.
`Oc1ccc(Cl)c(Cl)c1Cl`: the lipophilicity (logP) in [14] stood at 3.8.
As to `CCN(CC)C(C)=O`, the logP in data set [15] amounted to 0.37.
Take `O=C(O)[C@H]1O[C@H](O)[C@H](O)[C@@H](O)[C@@H]1O`: the logD in [16] (pH 1.0) was -2.57.
For `Cc1ccccc1[N+](=O)[O-]`, the logP in [15] is 2.17.
`C=CC(=O)OCC(C)(C)C` had a logP in [17] of 2.32.
As for `C=CCNCC=C`, the logD in data set [18] worked out at 1.08.
With `CCCn1c(=O)n(C)c(=O)c2nc[nH]c21`, the logD in data set [19] stood at 1.02.
In turn, `NC(=O)N(CCCCCCN(N=O)C(N)=O)N=O` yielded a logD in [1] of 0.58.
On to `COCCOCCOC(=O)C(Cc1ccc(OC(=O)N(C)C)cc1)NC(=O)C1N(S(=O)(=O)c2cnn(C)c2)CSC1(C)C` (stereo unspecified), for which, in data set [20], the logD came out at 1.41.
Regarding `Cn1cnc2c(Cl)ncnc21`, the logD in [13] is 0.38.
Regarding `CN(C)C(=O)Oc1ccc(CC(C(=O)OCC(C)(C)C)C(=O)C2N(S(=O)(=O)c3cnn(C)c3)CSC2(C)C)cc1` (stereo unspecified), the logD in data set [20] came out at 3.42.
Molecule `FC(F)OC(F)(F)C(F)Cl` (stereo unspecified) gave a logP in data set [21] of 2.1.
On to `O=[N+]([O-])c1ccc(Cl)c(Cl)c1Cl`, for which the logP is 3.54.
Molecule `Nc1ccc(F)cc1F` had a logP in data set [22] of 1.56.
As to `Nc1ncnc2nn[nH]c12`, the logP in data set [23] was -0.96.
`CCC(CC)C(=O)O` had a logP in data set [9] of 1.68.
Molecule `O=C(O)c1cc(Br)ccc1O` gave a logD in [24] of 2.87.
In the case of `c1ccc(-c2ccccc2)cc1`, the log partition coefficient (logP) in [22] amounted to 4.05.
In the case of `O=C(O)c1cccc(O)c1`, the log partition coefficient (logP) in data set [25] came out at 1.39.
As for `Brc1ccccc1-c1nnn[nH]1`, the logP in data set [26] was determined as 1.81.
Regarding `CC(C)COCC(C)C`, in data set [10], the lipophilicity (logP) amounted to 2.78.
For the molecule `CCCNC(=O)CBr`, the logD in data set [6] is 0.91.
As to `Nc1c([N+](=O)[O-])cc(C(F)(F)F)cc1[N+](=O)[O-]`, the log partition coefficient (logP) in [27] was 2.29.
Turning to `Nc1c(Cl)c(Cl)cc(Cl)c1Cl`, the logP in data set [28] turned out to be 4.06.
The molecule `NS(=O)(=O)c1ccc(O)cc1` returned a logD in data set [3] of 0.06.
Regarding `Oc1c(Cl)ccc(Cl)c1Cl`, the logP in data set [14] was 3.77.
In data set [16], `CCC(c1ccccc1)c1c(O)c2ccccc2oc1=O` (stereo unspecified) displayed a lipophilicity (logP) of 3.62.
For `O=c1ccc(O)n[nH]1`, the lipophilicity (logP) in data set [29] was -0.63.
Turning to `Nc1ccc(O)c([N+](=O)[O-])c1`, the lipophilicity (logP) in [30] worked out at 0.96.
The molecule `Clc1cc(Cl)cc(Cl)c1` yielded a lipophilicity (logP) in data set [31] of 4.09.
On to `O=c1[nH]cnc2c1ncn2[C@@H]1O[C@H](CO)[C@@H](O)[C@H]1O`, for which the lipophilicity (logP) in [23] is -1.81.
Regarding `BrC1CCCCC1`, in data set [32], the lipophilicity (logP) was 3.2.
In data set [33], `Oc1c(Cl)cccc1Cl` registered a log partition coefficient (logP) of 2.92.
In data set [34], `COc1ccnnc1` registered a lipophilicity (logP) of 0.24.
On to `Nc1cc(Cl)c(Cl)cc1Cl`, for which the lipophilicity (logP) in [28] was 3.31.
In data set [35], `Oc1c(F)c(F)c(F)c(F)c1F` had a logP of 2.96.
`CC(=O)CC(C)C`: in [4], the lipophilicity (logP) was 1.4.
In data set [36], `CC(C)(C)CO` yielded a log partition coefficient (logP) of 1.29.
Regarding `Oc1c(Cl)c(Cl)cc(Cl)c1Cl`, in [33], the logP was 4.47.
`Clc1cc(Cl)c(Cl)c(Cl)c1Cl`: in [31], the log partition coefficient (logP) worked out at 5.2.
The molecule `BrC=C(Br)Br` yielded a log partition coefficient (logP) in data set [32] of 3.2.
On to `CCOCC`, for which, in data set [21], the logP came to 0.89.
`O=C(O)c1ccccc1Br` came in with a lipophilicity (logP) in data set [25] of 2.19.
Regarding `CS(=O)(=O)OC[C@H](O)[C@@H]1CO1`, the logD in data set [11] was -1.18.
For `O=C1C=CC(=O)C=C1`, the lipophilicity (logP) in data set [37] was determined as 0.3.
With `Cc1cc(OCC(=O)O)ccc1S(C)(=O)=O`, the logP in data set [29] was found to be 0.54.
For `CC(C)CNCC(C)C`, the logD in data set [18] was 2.67.
`C=CC(=O)OC` had a logP in data set [17] of 0.74.
In turn, `OCCBr` came in with a log partition coefficient (logP) in [36] of 0.29.
For the molecule `O=C1NC(=O)C(O)C(=O)N1`, in data set [12], the logD was -1.85.
As for `O=C1C=CC(=O)c2c(O)ccc(O)c21`, the logP in data set [37] is 1.79.
As for `Cn1c(=O)[nH]c(=O)c2nc[nH]c21`, the logD in [19] was -0.72.
In data set [26], `c1ccc(-c2nnn[nH]2)cc1` had a logP of 1.5.
`Nc1ccccc1N` came in with a logP in data set [30] of 0.15.
For the molecule `c1ccnnc1`, the lipophilicity (logP) in [34] is -0.15.
`Oc1cccc(Br)c1Br` registered a logP in data set [35] of 3.37.
For `O=C(O)c1ccc(O)c(O)c1O`, the logD in data set [24] is 1.05.
For the molecule `CCCNc1c([N+](=O)[O-])cc(C(F)(F)F)cc1[N+](=O)[O-]`, in [27], the logP is 3.65.
